{"source": "patent US20060084695A1", "about": "“Compositions and treatments for inhibiting kinase and/or HMG-CoA reductase” (priority 2004, published 2006)", "tested_on": "oxazolone-induced mouse ear swelling", "assay": "Inhibition of oxazolone-induced mouse ear swelling (topical inflammation model)", "format": "in vivo, BALB/c male mice", "conditions": "observations made from Table II", "method": "Left ears were untreated. The thickness of both ears of each animal was measured with a Dyer model micrometer gauge 24 hours after oxazolone challenge, and the net increase in thickness of right ears versus left ears was calculated for each animal. Percent inhibition was calculated according to the formula: [(Iv−It)/Iv]×100, where Iv and It respectively refer to the average net increase in right ear thickness (mm) for vehicle and candidate compound treated mice.", "data": [{"smiles": "CC(C)c1c(C(=O)Nc2ccccc2)c(-c2ccccc2)c(-c2ccc(F)cc2)n1CC[C@@H]1C[C@@H](O)CC(=O)O1", "note": "[Atorvastatin lactone, atorvastatin lactone]", "values": [{"measurement": "anti-inflammatory activity in ear swelling assay, comparison in words", "value": "most potent anti-inflammatory activity"}]}]}
